The subject of experiment [1] is T1, EPSPS (5-enolpyruvylshikimate-3-phosphate synthase).
T1 construct: native enzyme extracted from leaf tissue, not purified to homogeneity, activity per total soluble protein
Briefly: EPSPS activity by phosphate release (EnzChek Phosphate Assay), leaf extract. The class given is biochemical, Steinchisma laxum. The settings on record: S population; glyphosate 0-1000 µM; read-out: I50.

Experiment [2] shares this test system. The experiment is described as above. The format is biochemical, Steinchisma laxum. To be noted: R population (Pro106Ser found in R plants); glyphosate 0-1000 µM; stated gain; read-out: I50.

The structures appear in SMILES notation. Where two headings read alike, the source gives them in different places.

With `O=C(O)CNCP(=O)(O)O` [glyphosate, N-(phosphonomethyl) glycine], the IC50 in experiment [1] is 0.98 µM; in experiment [2], 14.7 µM.

The values are drawn from PMC10534422, “Divergence in Glyphosate Susceptibility between Steinchisma laxum Populations Involves a Pro106Ser Mutation” (Plants, 2023).
